The text below walks through data of patent US11413278B2, “Compounds and methods for promoting stress resistance” (priority 2015, dated 2022).

In data set [1] the test system is WI-38 cells. The following applies: read-out: Est. ED50; dose response 0.6-20 μM; H2O2-resistance.
For data set [2], the system named is WI-38 cells. Briefly: Long-term effects on cell viability (5 days, ATP; morphology, PI imaging).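 On Luminescence signal for ATP measurement, day-2 Average: compounds at 10 µM with ATP read daily over 5 days of treatment.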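 On Luminescence signal for ATP measurement, day-3 Average: compounds at 10 µM with ATP read daily over 5 days of treatment.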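 On Luminescence signal for ATP measurement, day-4 Average: compounds at 10 µM with ATP read daily over 5 days of treatment.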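 On Luminescence signal for ATP measurement, day-5 Average: compounds at 10 µM with ATP read daily over 5 days of treatment.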 It counts as cell-based. The following applies: 10 μM; for Luminescence signal for ATP measurement, day-1 Average / Luminescence signal for ATP measurement, day-2 Average / Luminescence signal for ATP measurement, day-3 Average / Luminescence signal for ATP measurement, day-4 Average / Luminescence signal for ATP measurement, day-5 Average: n = 6; for ATP luminescence by day-5 normalized: DMSO ctrl = 100.0%. How it is done: In addition, cell death was scored by PI-imaging on day 2 and day 5 of treatment.
Applicants introduced molecules (at 10 uM final concentration) to WI-38 fibroblasts and then assayed cell viability (through ATP measurement) everyday, during a course of 5 days of continuous treatment. […] Applicants also examined the morphology and scored cell death (propidium iodide staining) for cells treated with the above molecules. Of these 14 molecules, some appeared to cause cell toxicity. […] Despite the observed long-term toxicity, these molecules are still interesting as they may act as anti-tumor agents in vivo, should they have more pronounced cytotoxicity on highly proliferative tumor cells. When cells were incubated with these molecules for ˜24 hrs and then subject to hydrogen peroxide for 3 hrs, these molecules are all protective. […] Some of these small molecules may be toxic by themselves under certain conditions, but by inducing protective mechanisms, they may trigger “hormesis” and therefore protect cells from oxidative stress.

For data set [3], the system named is NRF2. Briefly: qPCR analysis of NRF2-regulated genes. The following applies: Homo sapiens, 24 h, Assay 12(o), at 10 uM, qPCR. It counts as cell-based, human. On the procedure: (§1) For qPCR analysis, WI-38 cells were treated with small molecules (at 10 μM) (biological quadruplicates) for 24 hrs and processed for RNA isolation and reverse transcription (RT) with the Cells-to-Ct Kit (Life Technologies), following manufacturer's instructions. RT products were diluted with H2O and used for qPCR analysis on an ABI 7300 system (Life Technologies) (technical triplicates). Relative expression levels of target genes were normalized to the genes B2M, PPIA and GAPDH. To knock down the expression of FOXO3 or NRF2, WI-38 cells were transfected, using the RNAiMAX reagents (Life Technologies), with siRNA oligos (at 10 nM final concentration, 10 ml culture medium) for FOXO3 (Life Technologies) or NRF2 (Integrated DNA Technologies) on 10-cm petri dishes for 36 hrs, and then detached and aliquoted onto 96-well (for qPCR analysis) or 384-well plates (for H2O2-stress treatment). ˜24 hrs later, small molecules were introduced and incubated with cells for 24 hrs. Cells were then either processed with the Cells-to-Ct Kit to prepare RT products for qPCR analysis or subjected to H2O2 (700 μM) for 3 hrs and assayed for viability. The knockdown efficiency of FOXO3 or NRF2 was checked at 36 hrs post-transfection and at the end as well.
(§2) For qPCR analysis, WI-38 cells were treated with small molecules (at 10 μM) (biological quadruplicate) for 24 hrs and processed for RNA isolation and reverse transcription (RT) with the Cells-to-Ct Kit (Life Technologies), following manufacturer's instructions. RT products were diluted with H2O and used for qPCR analysis on a LightCycler 480 system (Roche) (technical triplicates). Relative expression levels of target genes were normalized to the genes B2M, PPIA and GAPDH. To knock down the expression of FOXO3 or NRF2, WI-38 cells were transfected with siRNA oligos (at 10 nM final concentration) for FOXO3 (Life Technologies) or NRF2 on 10-cm petri dish for 36 hrs, and then detached and aliquoted onto 96-well plates. ˜24 hrs later, small molecules were introduced and incubated with cells for 24 hrs. Cells were then processed with the Cells-to-Ct Kit to prepare RT products for qPCR analysis. The knockdown efficiency of FOXO3 or NRF2 was checked at 36 hrs post-transfection and at the end as well.
NRF2/SKN-1, the oxidative stress and xenobiotic phase 2 detoxification protein, can extend animal lifespan (Sykiotis and Bohmann, 2008; Tullet et al., 2008). Applicants analyzed these small molecules for their ability to increase the expression of NRF2-regulated genes, including HMOX1 (heme oxygenase (decycling) 1; anti-oxidant), NQO1 (NAD(P)H dehydrogenase, quinone 1; phase 2 detoxification enzyme), GCLC (glutamate-cysteine ligase, catalytic) and GSTM1 (glutathionine S transferase) (Hur and Gray, 2011; Suzuki et al., 2013).

Data set [4] relates to NRF2. The data set is described as follows: in vitro. It counts as cell-based, human. The following applies: 10 uM; YES/NO. How it is done:
as §1, §2
Of these, O15 and O20 consistently (in 3 of 3 experiments) required NRF2 to promote H2O2-resistance, and their resistance capacities were reduced by ˜90% on average upon NRF2 knockdown under conditions tested.

The subject of data set [5] is FOXO3. Briefly: qPCR analysis of FOXO3-regulated genes. In kind it is cell-based, human. The following applies: Homo sapiens, 24 h, Assay 10(m), at 10 uM, qPCR. On the procedure: as §1, §2
Many perturbations that increase lifespan and stress resistance in animals do so in a FOXO-dependent fashion (Kenyon, 2010c). Humans have several FOXO genes, but FOXO3, which promotes stress resistance in mammalian cell culture (Kops et al., 2002; Nemoto and Finkel, 2002; Tran et al., 2003), is the one that has been linked to exceptional longevity in humans (Anselmi et al., 2009; Flachsbart et al., 2009; Li et al., 2009; Pawlikowska et al., 2009; Soerensen et al., 2010; Willcox et al., 2008). FOXO1, in contrast, appears to be responsible for some symptoms of diabetes in mouse models (Cheng and White, 2011). For this reason, applicants have focused on analyzing potential ability of our small molecules to activate FOXO3. […] Another 4 molecules (Gr-7A, Gr-7C, O12 and O23) could induce robust expression (greater than 1.5-fold) of at least 2 FOXO3 target genes.
(Real-time PCR tracks product formation cycle by cycle.)

The test system of data set [6] is C. elegans. Briefly: C. elegans lifespan assays (liquid and plate). It counts as in vivo, Caenorhabditis elegans. The following applies: Caenorhabditis elegans, at 66 uM.
Data set [7] deals with human dermal fibroblast (HDF) primary cells. Briefly: H2O2-resistance in primary human dermal fibroblasts. In kind it is cell-based. Conditions: YES/NO.
The test system of data set [8] is phosphorylated γH2A.X and TP53BP1. The data set is described as follows: DNA damage marker analysis (immuno-staining). How it is done: WI-38 cells were seeded on 96-well plates and cultured for 24 hrs and then incubated with small molecules for another 24 hrs. As the positive control to damage DNA, H2O2 was supplemented at 700 μM final concentration for the last 3 hrs. Cells were washed with phosphate-buffered saline (PBS), fixed with 4% paraformaldehyde and then blocked with 5% normal goat serum (Cell Signaling), plus 0.3% Triton X-100, for 1 hr. Primary antibody cocktail (rabbit anti-phospho-histone γH2A.X (Ser-139), 1:100; anti-phospho-TP53BP1 (Ser-1778), 1:100), prepared in 1% BSA and 0.3% Triton X-100/PBS, was then introduced and incubated overnight at 4 C. Next day, samples were washed with PBS and further incubated with fluorophore-conjugated secondary antibody (1:1,000) for 1 hr in the dark. Samples were then washed and incubated with DAPI dye (Life Technologies) (4 μg/ml final concentration) for the last 10 minutes. Images were collected on an INCell Analyzer 2000 (GE) and analyzed with the Developer software.
WI-38 cells were seeded (˜8,000 cells per well) on 96-well plates and cultured for 24 hrs and then incubated with small molecules for another 24 hrs. Doxorubicin (300 nM, 24 hrs) and H2O2 (700 μM, 3 hrs) were also introduced as the positive controls to damage DNA. Cells were washed with phosphate-buffered saline (PBS), fixed with 4% paraformaldehyde for 30 min and then blocked with 5% normal goat serum (Cell Signaling) and 0.3% Triton X-100 for 1 hr. Primary antibody cocktail (Cell Signaling, rabbit anti-phospho-histone γH2A.X (Ser-139), 1:100; anti-phospho-TP53BP1 (Ser-1778), 1:100) was prepared in PBS with 1% BSA and 0.3% Triton X-100 and incubated overnight at 4° C. Next day, samples were washed with PBS and further incubated with fluorophore-conjugated secondary antibody (1:1,000) for 1 hr in dark. Samples were then washed and incubated with DAPI dye (Life Technologies) (4 μg/ml final concentration) for 30 minutes. Images were collected on the INCell Analyzer 2000 (10× objective) and analyzed with the Developer Toolbox.

[9] abbreviates: Batch 1, day-0 luminescence = 320956 ± 24708.
Setting [10] is: Batch 2, day-0 luminescence = 229312 ± 17487.
The mark [11] stands for this setting: read-out: Induction of NRF2-regulated genes: NQO1 normalized fold-change.
Setting [12] is: read-out: Induction of FOXO3-regulated genes: GADD45A normalized fold-change.

Read-outs that look alike come from different tables or passages of the source.

Regarding `Nc1c(Cl)ncnc1NCCCn1ccnc1` [O31], the EC50 in data set [1] amounted to 10.6 µM.
With `CO[C@H]1C[C@@H]2CC[C@@H](C)[C@@](O)(O2)C(=O)C(=O)N2CCCC[C@H]2C(=O)O[C@H]([C@H](C)C[C@@H]2CC[C@@H](O)[C@H](OC)C2)CC(=O)[C@H](C)/C=C(\C)[C@@H](O)[C@@H](OC)C(=O)[C@H](C)C[C@H](C)/C=C/C=C/C=C/1C` [Rapa], in data set [2] (setting [9]), the “Luminescence signal for ATP measurement, day-1 Average” value worked out at 454546; the “Luminescence signal for ATP measurement, day-2 Average” value came out at 519403; the “Luminescence signal for ATP measurement, day-3 Average” value turned out to be 545026; the “Luminescence signal for ATP measurement, day-4 Average” value came out at 552160. The “Luminescence signal for ATP measurement, day-5 Average” value in data set [2] (setting [9]) was 547771. Also, the “ATP luminescence by day-5 normalized” value in data set [2] (Batch 1) is recorded as 53.3%. Also, in data set [2] (setting [10]), the “Luminescence signal for ATP measurement, day-1 Average” value stood at 239521; the “Luminescence signal for ATP measurement, day-2 Average” value is on record as 221640; the “Luminescence signal for ATP measurement, day-3 Average” value was determined as 244073; the “Luminescence signal for ATP measurement, day-4 Average” value worked out at 276911. The “Luminescence signal for ATP measurement, day-5 Average” value in data set [2] (setting [10]) came to 262898. The “ATP luminescence by day-5 normalized” value in data set [2] (Batch 2) is 47.3%.
For `CC(C)CCOc1ccc(C(=O)C(CN2CCOCC2)c2ccccc2)cc1` (stereo not shown) [O30], in data set [1], the EC50 was determined as 4.2 µM.
On to `COCCCN1Cc2cccc(C(N)=O)c2C1=O` [O2], for which, in data set [1], the EC50 came out at 20 µM.
Still for that read-out and setting: to `Cc1ccc(C(=O)Nc2ccc3ccc4cccnc4c3n2)cc1` [Gr-3D] belongs 4.96 µM.
Turning to `Oc1cc(-c2ccccc2)nc2c(-c3ccc(Cl)cc3)c(Cc3ccccc3)nn12` [O26], the EC50 in data set [1] is 20 µM. For the same compound, the fold induction at 10 µM is 0.85 in data set [3] (read-out: Induction of NRF2-regulated genes: GSTM1 normalized fold-change); 0.44 in data set [3] (setting [11]); 3.36 in data set [5] (setting [12]); 2.21 in data set [5] (read-out: Induction of FOXO3-regulated genes: SESN1 normalized fold-change); 1.16 in data set [5] (read-out: Induction of FOXO3-regulated genes: TXNIP normalized fold-change). In addition, the “Assay 17: NRF2-dependency for H2O2-resistance” value in data set [4] is “YES”. The ILS at 66 µM in data set [6] (Assay 2(z), 1.0 × 10^9 bacteria/ml, wild type + FuDR (2012 July), read-out: Lifespan assay in liquid) came out at 23.9%; in data set [6] (Assay 3(aa), 2.5 × 10^9 bacteria/ml, wild type + FuDR, read-out: Lifespan assay in liquid), 4.6%; in data set [6] (Assay 4(ab), 2.0 × 10^10 bacteria/ml, CF512 worms, no FuDR, read-out: Lifespan assay on plates), 27.1%; in data set [6] (Assay 5(ac), 1.0 × 10^11 bacteria/ml, CF512 worms, no FuDR, read-out: Lifespan assay on plates), 8.3%.
Turning to `O=C(CC1(O)C(=O)Nc2ccc(Br)cc21)c1ccc(Cl)cc1` (stereo not shown) [O19], the “Assay 6: H2O2-resistant, at 10 uM, human dermal fibroblast (HDF) primary cells” value in data set [7] is recorded as “YES”. Besides, the EC50 in data set [1] stood at 20 µM. Further, the fold induction at 10 µM was 1.91 in data set [3] (setting [11]) and 0.84 in data set [5] (setting [12]).
In data set [8], `OO` [H2O2, hydrogen peroxide, reference compound] returned a TP53BP1-positive cells of about 45.8±5.1% and a γH2A.X-positive cells of about 50.9±4.2%.
On to `CCCCCCc1cc(C=O)c(O)cc1O` [O29], for which the EC50 in data set [1] came to 15.3 µM.
Regarding `Cc1cc(C)n(-c2nc(O)cc(-c3ccccc3)n2)n1` [O28], in data set [1], the EC50 amounted to 5.4 µM.
Consider `O=C(O)c1cc(Cl)c(Cl)cc1C(=O)Nc1ccccc1` [O25], for which, in data set [7], the “Assay 6: H2O2-resistant, at 10 uM, human dermal fibroblast (HDF) primary cells” value is reported as “YES”. For the same compound, in data set [1], the EC50 was determined as 8.5 µM.
